Where two headings read alike, the source gives them in different places.
Tests used:
[1] = biological target: T1, butyrylcholinesterase from equine serum (eqBChE, E.C. 3.1.1.8) (Equus caballus, UniProt P81908); test: biochemical
T1 construct: butyrylcholinesterase from equine serum (eqBChE, E.C. 3.1.1.8); purchased Sigma Aldrich; host or cells: equine serum

[2] = biological target: Acetylcholinesterase from electric eel (eeAChE, type VI-S) (Electrophorus electricus, UniProt O42275); test: biochemical
Acetylcholinesterase from electric eel (eeAChE, type VI-S), sequence (O42275 24-633): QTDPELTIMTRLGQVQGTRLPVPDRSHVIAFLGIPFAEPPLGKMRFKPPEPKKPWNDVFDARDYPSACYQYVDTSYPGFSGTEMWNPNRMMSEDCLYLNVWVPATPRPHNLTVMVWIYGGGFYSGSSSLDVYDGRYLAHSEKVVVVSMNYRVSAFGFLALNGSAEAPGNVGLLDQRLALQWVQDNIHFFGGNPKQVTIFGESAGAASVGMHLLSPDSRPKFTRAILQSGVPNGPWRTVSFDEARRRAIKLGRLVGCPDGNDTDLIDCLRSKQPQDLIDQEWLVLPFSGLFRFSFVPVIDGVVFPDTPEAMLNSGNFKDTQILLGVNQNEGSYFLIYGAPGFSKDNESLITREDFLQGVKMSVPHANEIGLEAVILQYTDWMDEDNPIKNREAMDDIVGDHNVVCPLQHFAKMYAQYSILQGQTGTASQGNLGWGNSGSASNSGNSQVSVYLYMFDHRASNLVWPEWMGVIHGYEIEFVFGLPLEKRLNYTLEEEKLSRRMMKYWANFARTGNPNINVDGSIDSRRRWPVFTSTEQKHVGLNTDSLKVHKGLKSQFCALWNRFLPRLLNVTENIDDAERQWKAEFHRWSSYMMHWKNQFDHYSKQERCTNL

[3] = eqBChE, Ellman assay, triplicate
[4] = eeAChE, Ellman assay, triplicate

T1 sequence (P81908 whole entry): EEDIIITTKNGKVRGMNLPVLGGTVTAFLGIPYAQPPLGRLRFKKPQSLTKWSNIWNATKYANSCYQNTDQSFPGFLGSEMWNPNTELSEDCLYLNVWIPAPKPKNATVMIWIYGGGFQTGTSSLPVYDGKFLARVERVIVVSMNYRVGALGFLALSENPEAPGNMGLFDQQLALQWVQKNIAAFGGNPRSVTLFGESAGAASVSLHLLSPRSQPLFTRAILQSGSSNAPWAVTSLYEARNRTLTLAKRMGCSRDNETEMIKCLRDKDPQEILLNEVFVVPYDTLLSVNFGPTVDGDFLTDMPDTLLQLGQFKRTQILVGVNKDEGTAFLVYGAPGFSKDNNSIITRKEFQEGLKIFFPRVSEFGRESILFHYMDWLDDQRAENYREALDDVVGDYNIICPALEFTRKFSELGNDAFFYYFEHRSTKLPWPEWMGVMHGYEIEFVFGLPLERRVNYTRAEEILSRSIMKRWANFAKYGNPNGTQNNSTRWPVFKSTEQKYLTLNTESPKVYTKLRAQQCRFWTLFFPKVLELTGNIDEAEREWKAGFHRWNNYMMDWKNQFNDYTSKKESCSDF

SMILES | IC50 [1, 3] [µM] | IC50 [2, 4] [µM] | IC50 [1] [µM] | IC50 [2] [µM]
Cc1cccc(Cn2n[n+](C)c3ccc4sc(C)cc4c32)c1 [Compound 27, 3,7-dimethyl-1-(3-methylbenzyl)-1H-thieno [3’,2’:3,4]benzo [1,2-d][1,2,3]triazol-3-ium] | 9.7 | 8.3 | – | –
C[n+]1nn(Cc2ccco2)c2c3ccsc3ccc21 [Compound 31, 1-(furan-2-ylmethyl)-3-methyl-1H-thieno [3’,2’:3,4]benzo [1,2-d][1,2,3]triazol-3-ium] | 16.1 | 157 | – | –
COc1cccc(Cn2n[n+](C)c3ccc4sc(C)cc4c32)c1 [Compound 28, 1-(3-methoxybenzyl)-3,7-dimethyl-1H-thieno [3’,2’:3,4]benzo [1,2-d][1,2,3]triazol-3-ium] | 10.6 | 54.8 | – | –
C[n+]1nn(Cc2ccc(Cl)cc2)c2c3ccsc3ccc21 [Compound 23, 1-(4-chlorobenzyl)-3-methyl-1H-thieno [3’,2’:3,4]benzo [1,2-d][1,2,3]triazol-3-ium] | – | – | 0.47 | 4.4
Cc1ccc(Cn2n[n+](C)c3ccc4sccc4c32)cc1 [Compound 22, 3-methyl-1-(4-methylbenzyl)-1H-thieno [3’,2’:3,4]benzo [1,2-d][1,2,3]triazol-3-ium] | – | – | 1 | 39.2
Cc1cccc(Cn2n[n+](C)c3ccc4sccc4c32)c1 [Compound 24, 3-methyl-1-(3-methylbenzyl)-1H-thieno [3’,2’:3,4]benzo [1,2-d][1,2,3]triazol-3-ium] | 7 | 55.1 | – | –
Cc1ccc(Cn2nnc3ccc4sccc4c32)cc1 [Compound 14, 1-(4-methylbenzyl)-1H-thieno [3’,2’:3,4]benzo [1,2-d][1,2,3]triazole] | 24.3 | 117 | – | –
Cc1cc2c(ccc3nnn(Cc4ccc(Cl)cc4)c32)s1 [Compound 18, 1-(4-chlorobenzyl)-7-methyl-1H-thieno [3’,2’:3,4]benzo [1,2-d][1,2,3]triazole] | 59 | > 100 | – | –
C[n+]1nn(Cc2cccc(Cl)c2)c2c3ccsc3ccc21 [Compound 30, 1-(3-chlorobenzyl)-3-methyl-1H-thieno [3’,2’:3,4]benzo [1,2-d][1,2,3]triazol-3-ium] | – | – | 2.7 | 12.2
Cc1cccc(Cn2nnc3ccc4sccc4c32)c1 [Compound 16, 1-(3-methylbenzyl)-1H-thieno [3’,2’:3,4]benzo [1,2-d][1,2,3]triazole] | 2.9 | 77.1 | – | –
Cc1cc2c(ccc3nnn(Cc4cccc(F)c4)c32)s1 [Compound 21, 1-(3-fluorobenzyl)-7-methyl-1H-thieno [3’,2’:3,4]benzo [1,2-d][1,2,3]triazole] | 172 | 465 | – | –
Clc1ccc(Cn2nnc3ccc4sccc4c32)cc1 [Compound 15, 1-(4-chlorobenzyl)-1H-thieno [3’,2’:3,4]benzo [1,2-d][1,2,3]triazole] | 34.6 | 77 | – | –
Cc1cc2c(ccc3c2n(Cc2ccc(Cl)cc2)n[n+]3C)s1 [Compound 26, 1-(4-chlorobenzyl)-3,7-dimethyl-1H-thieno [3’,2’:3,4]benzo [1,2-d][1,2,3]triazol-3-ium] | 13.4 | 8.1 | – | –
Cc1cccc(Cn2nnc3ccc4sc(C)cc4c32)c1 [Compound 19, 7-methyl-1-(3-methylbenzyl)-1H-thieno [3’,2’:3,4]benzo [1,2-d][1,2,3]triazole] | 70.3 | > 250 | – | –
Cc1ccc(Cn2n[n+](C)c3ccc4sc(C)cc4c32)cc1 [Compound 25, 3,7-dimethyl-1-(4-methylbenzyl)-1H-thieno [3’,2’:3,4]benzo [1,2-d][1,2,3]triazol-3-ium] | – | – | 102 | 211
COc1cccc(Cn2nnc3ccc4sc(C)cc4c32)c1 [Compound 20, 1-(3-methoxybenzyl)-7-methyl-1H-thieno [3’,2’:3,4]benzo [1,2-d][1,2,3]triazole] | 90.2 | 186 | – | –
Cc1ccc(Cn2nnc3ccc4sc(C)cc4c32)cc1 [Compound 17, 7-methyl-1-(4-methylbenzyl)-1H-thieno [3’,2’:3,4]benzo [1,2-d][1,2,3]triazole] | 57.6 | > 250 | – | –

From article PMC11591901 (Biomolecules, 2024)
